pIC50: −log10 of the molar value.
These compounds were tested against T1, human CTPS1 (Homo sapiens, UniProt P17812) (assay: Human CTPS1 enzyme inhibition, ADP-Glo Max assay). Details: human full length CTPS1, read-out: CTPS1 (Human CTPS1 Enzyme Inhibition data grouped by potency range, IC50).
T1 construct: purchased Proteros biostructures GmbH
T1 sequence (P17812 1-591): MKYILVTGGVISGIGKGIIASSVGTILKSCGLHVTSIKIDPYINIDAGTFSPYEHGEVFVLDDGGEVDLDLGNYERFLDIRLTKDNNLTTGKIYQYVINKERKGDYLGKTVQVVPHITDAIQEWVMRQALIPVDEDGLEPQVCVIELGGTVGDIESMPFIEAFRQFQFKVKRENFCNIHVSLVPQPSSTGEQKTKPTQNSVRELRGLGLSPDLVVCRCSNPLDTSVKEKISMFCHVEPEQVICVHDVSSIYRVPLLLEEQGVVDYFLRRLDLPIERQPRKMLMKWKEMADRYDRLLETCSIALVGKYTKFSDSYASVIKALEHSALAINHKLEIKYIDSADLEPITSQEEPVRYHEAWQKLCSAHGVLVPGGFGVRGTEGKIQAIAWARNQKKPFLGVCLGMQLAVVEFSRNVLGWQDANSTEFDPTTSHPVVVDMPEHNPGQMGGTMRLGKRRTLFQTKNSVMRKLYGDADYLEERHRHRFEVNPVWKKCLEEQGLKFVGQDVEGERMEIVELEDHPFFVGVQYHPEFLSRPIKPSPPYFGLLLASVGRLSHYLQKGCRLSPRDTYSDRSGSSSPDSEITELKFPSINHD
Format: biochemical
Procedure: Biological Example 1—Human CTPS1 Enzyme Inhibition
The enzyme inhibitory activities of compounds invented against the target of interest were determined using the ADP-Glo™ Max assay (Promega, UK). Assays for human CTPS1 were performed in 1× assay buffer containing 50 mM Tris, 10 mM MgCl2, 0.01% Tween-20, pH to 8.0 accordingly. Finally, immediately before use, L-cysteine was added to the 1× assay buffer to a final concentration of 2 mM. All reagents are from Sigma-Aldrich unless specified otherwise. Human full length active C-terminal FLAG-Hiss-tag CTPS1 (UniProtKB-P17812, CTPS[1-591]-[…]) was obtained from Proteros biostructures GmbH.
3× human CTPS1 protein was prepared in 1× assay buffer to the final working protein concentration required for the reaction. A 2 uL volume per well of 3× human CTPS1 protein was mixed with 2 uL per well of 3× test compound (compound prepared in 1× assay buffer to an appropriate final 3× compound concentration respective to the concentration response curve designed for the compounds under test) for 10 minutes at 25° C. The enzymatic reaction was then initiated by addition of a 2 uL per well volume of a pre-mixed substrate mix (UltraPure ATP from ADP-Glo™ Max kit (0.31 mM), GTP (0.034 mM), UTP (0.48 mM) and L-glutamine (0.186 mM)) and the mixture was incubated for an appropriate amount of time within the determined linear phase of the reaction at 25° C. under sealed plate conditions with constant agitation at 500 revolutions per minute (rpm). ADP-GIo™ Max reagent was added for 60 minutes (6 uL per well) and subsequently ADP-Glo™ Max development reagent was added for 60 minutes (12 uL per well) prior to signal detection in a microplate reader (EnVision® Multilabel Reader, Perkin Elmer). Following each reagent addition over the course of the assay, assay plates were pulse centrifuged for 30 seconds at 500 rpm.
In all cases, the enzyme converts ATP to ADP and the ADP-Glo™ Max reagent subsequently depletes any remaining endogenous ATP in the reaction system. The ADP-Glo™ Max detection reagent converts the ADP that has been enzymatically produced back into ATP and using ATP as a substrate together with luciferin for the enzyme luciferase, light is generated which produces a detectable luminescence. […] The percentage inhibition produced by each concentration of compound was calculated using the equation shown below: […]
Percentage inhibition was then plotted against compound concentration, and the 50% inhibitory concentration (IC50) was determined from the resultant concentration-response curve.

pIC50 | SMILES
6.00 to 7.00 | CCC(NC(=O)c1ccc(-c2cncc(C(F)(F)F)c2)cc1)c1csc(NS(=O)(=O)C2CC2)n1 (racemic) [Example R2, N-(1-(2-(cyclopropanesulfonamido)thiazol-4-yl)propyl)-4-(5-(trifluoromethyl)pyridin-3-yl)benzamide]
6.00 to 7.00 | CCC(NC(=O)c1ccc(-c2cncc(F)c2)cc1)c1csc(NS(=O)(=O)C2CC2)n1 (racemic) [Example R59, N-(1-(2-(cyclopropanesulfonamido)thiazol-4-yl)propyl)-4-(5-fluoropyridin-3-yl)benzamide]
6.00 to 7.00 | CCC(NC(=O)c1ccc(-c2cncc(C)c2)cc1)c1csc(NS(=O)(=O)C2CC2)n1 (racemic) [Example R60, N-(1-(2-(cyclopropanesulfonamido)thiazol-4-yl)propyl)-4-(5-methylpyridin-3-yl)benzamide]
6.00 to 7.00 | CCC(NC(=O)c1ccc(-c2cccnc2)cc1)c1csc(NS(=O)(=O)C2CC2)n1 (racemic) [Example R61, N-(1-(2-(cyclopropanesulfonamido)thiazol-4-yl)propyl)-4-(pyridin-3-yl)benzamide]
6.00 to 7.00 | CCOc1cncc(-c2ccc(C(=O)NC(CC)c3csc(NS(=O)(=O)C4CC4)n3)c(F)c2)n1 (racemic) [Example R62, N-(1-(2-(cyclopropanesulfonamido)thiazol-4-yl)propyl)-4-(6-ethoxypyrazin-2-yl)-2-fluorobenzamide]
6.00 to 7.00 | CCOc1cncc(-c2ccc(C(=O)N(C)C(CC)c3csc(NS(=O)(=O)C4CC4)n3)c(F)c2)n1 (racemic) [Example R63, N-(1-(2-(cyclopropanesulfonamido)thiazol-4-yl)propyl)-4-(6-ethoxypyrazin-2-yl)-2-fluoro-N-methylbenzamide]
6.00 to 7.00 | CCC(NC(=O)c1ccc(-c2cncc(OC(C)C)n2)cc1F)c1csc(NS(=O)(=O)C2CC2)n1 (racemic) [Example R64, N-(1-(2-(cyclopropanesulfonamido)thiazol-4-yl)propyl)-2-fluoro-4-(6-isopropoxypyrazin-2-yl)benzamide]
> 7.00 | CCC(NC(=O)c1ccc(-c2cncc(Cl)n2)cc1)c1csc(NS(=O)(=O)C2CC2)n1 (racemic) [Example R65, 4-(6-chloropyrazin-2-yl)-N-(1-(2-(cyclopropanesulfonamido)thiazol-4-yl)propyl)benzamide]
6.00 to 7.00 | CCC(NC(=O)c1ccc(-c2cncc(C)n2)cc1)c1csc(NS(=O)(=O)C2CC2)n1 (racemic) [Example R66, N-(1-(2-(cyclopropanesulfonamido)thiazol-4-yl)propyl)-4-(6-methylpyrazin-2-yl)benzamide]
6.00 to 7.00 | CCC(NC(=O)c1ccc(-c2cnccn2)cc1)c1csc(NS(=O)(=O)C2CC2)n1 (racemic) [Example R67, N-(1-(2-(cyclopropanesulfonamido)thiazol-4-yl)propyl)-4-(pyrazin-2-yl)benzamide]
6.00 to 7.00 | CCC(NC(=O)c1ccc(-c2cncc(C(F)(F)F)c2)cc1)c1csc(NS(=O)(=O)C2CC2)n1 (single isomer, unassigned) [Example R3, N-(1-(2-(cyclopropanesulfonamido)thiazol-4-yl)propyl)-4-(5-(trifluoromethyl)pyridin-3-yl)benzamide]
> 7.00 | CCC(NC(=O)c1ccc(-c2cncc(C(F)(F)F)c2)cc1)c1csc(NS(=O)(=O)C2CC2)n1 (single isomer, unassigned) [Example R4, N-(1-(2-(cyclopropanesulfonamido)thiazol-4-yl)propyl)-4-(5-(trifluoromethyl)pyridin-3-yl)benzamide]
5.00 to 6.00 | CCC(NC(=O)c1ccc(-c2cncc(F)c2)cc1)c1csc(NS(=O)(=O)C2CC2)n1 (single isomer, unassigned) [Example R68, N-(1-(2-(cyclopropanesulfonamido)thiazol-4-yl)propyl)-4-(5-fluoropyridin-3-yl)benzamide]
> 7.00 | CCC(NC(=O)c1ccc(-c2cncc(F)c2)cc1)c1csc(NS(=O)(=O)C2CC2)n1 (single isomer, unassigned) [Example R69, N-(1-(2-(cyclopropanesulfonamido)thiazol-4-yl)propyl)-4-(5-fluoropyridin-3-yl)benzamide]
6.00 to 7.00 | CCOc1cncc(-c2ccc(C(=O)NC(CC)c3csc(NS(=O)(=O)C4CC4)n3)c(F)c2)n1 (single isomer, unassigned) [Example R70, N-(1-(2-(cyclopropanesulfonamido)thiazol-4-yl)propyl)-4-(6-ethoxypyrazin-2-yl)-2-fluorobenzamide]
6.00 to 7.00 | O=C(NCc1csc(NS(=O)(=O)C2CC2)n1)c1ccc(-c2cccnc2)cc1 [Example R1, N-((2-(cyclopropanesulfonamido)thiazol-4-yl)methyl)-4-(pyridin-3-yl)benzamide]
> 7.00 | CCC(NC(=O)c1ccc(-c2cncc(C(F)(F)F)n2)cc1)c1csc(NS(=O)(=O)C2CC2)n1 (centres unmarked) [Example R5, N-(1-(2-(cyclopropanesulfonamido)thiazol-4-yl)propyl)-4-(6-(trifluoromethyl)pyrazin-2-yl)benzamide]
6.00 to 7.00 | CCOc1cncc(-c2ccc(C(=O)NC(C)(C)c3csc(NS(=O)(=O)C4CC4)n3)c(OC)c2)n1 [Example R7, N-(2-(2-(cyclopropanesulfonamido)thiazol-4-yl)propan-2-yl)-4-(6-ethoxypyrazin-2-yl)-2-methoxybenzamide]
5.00 to 6.00 | O=C(NCc1csc(NS(=O)(=O)C2CC2)n1)c1ccc(-c2ccccc2)cn1 [Example R8, N-((2-(cyclopropanesulfonamido)thiazol-4-yl)methyl)-5-phenylpicolinamide]
5.00 to 6.00 | O=C(NCc1csc(NS(=O)(=O)C2CC2)n1)c1ccc(-c2ccccc2)cc1 [Example R9, N-((2-(cyclopropanesulfonamido)thiazol-4-yl)methyl)-[1,1′-biphenyl]-4-carboxamide]
> 7.00 | O=C(NCc1csc(NS(=O)(=O)C2CC2)n1)c1ccc(-c2cncc(C(F)(F)F)n2)cc1F [Example R10, N-((2-(cyclopropanesulfonamido)thiazol-4-yl)methyl)-2-fluoro-4-(6-(trifluoromethyl)pyrazin-2-yl)benzamide]
> 7.00 | CCOc1cncc(-c2ccc(C(=O)NCc3csc(NS(=O)(=O)C4CC4)n3)c(F)c2)n1 [Example R11, N-((2-(cyclopropanesuIfonamido)thiazol-4-yl)methyl)-4-(6-ethoxypyrazin-2-yl)-2-fluorobenzamide]
> 7.00 | O=C(NCc1csc(NS(=O)(=O)C2CC2)n1)c1ccc(-c2cncc(C(F)(F)F)n2)cc1 [Example R12, N-((2-(cyclopropanesulfonamido)thiazol-4-yl)methyl)-4-(6-(trifluoromethyl)pyrazin-2-yl)benzamide]
> 7.00 | CC(C)Oc1cncc(-c2ccc(C(=O)NCc3csc(NS(=O)(=O)C4CC4)n3)cc2)n1 [Example R13, N-((2-(cyclopropanesulfonamido)thiazol-4-yl)methyl)-4-(6-isopropoxypyrazin-2-yl)benzamide]
> 7.00 | CCOc1cncc(-c2ccc(C(=O)NCc3csc(NS(=O)(=O)C4CC4)n3)cc2)n1 [Example R14, N-((2-(cyclopropanesulfonamido)thiazol-4-yl)methyl)-4-(6-ethoxypyrazin-2-yl)benzamide]
> 7.00 | CCC(CC)(NC(=O)c1ccc(-c2cncc(C(F)(F)F)c2)cc1)c1csc(NS(=O)(=O)C2CC2)n1 [Example R15, N-(3-(2-(cyclopropanesulfonamido)thiazol-4-yl)pentan-3-yl)-4-(5-(trifluoromethyl)pyridin-3-yl)benzamide]

Source: patent US11505547B2, “Compounds” (STEP PHARMA S.A.S., priority 2017, dated 2022)
